The values below come from ChEMBL document CHEMBL3045618, “Effect of seven new orchard pesticides on Galendromus occidentalis in laboratory studies” (2009).

Each structure is given as a SMILES string.

Broadly, the mortality is the share of the test organisms that died.

Common to all, as to format: functional
The test system of test [1] is Galendromus occidentalis. Kind of test: Ovicidal activity against Metaseiulus occidentalis eggs in bean leaf disk infested with two-spotted spider mites assessed as corrected cumulative mortality at 250 g/kg WG formulation treated using worst-case laboratory exposure procedure measured after 144 hr (reference value: 0.7%).
In test [2] the test system is Galendromus occidentalis. Kind of test: Toxicity against Metaseiulus occidentalis adults in bean leaf disk infested with two-spotted spider mites assessed as repellency at 0.1600 g AI/L treated using worst-case laboratory exposure procedure measured after 72 hr (reference value: 16.1%).
The subject of test [3] is Galendromus occidentalis. Kind of test: Toxicity against Metaseiulus occidentalis adults in bean leaf disk infested with two-spotted spider mites assessed as corrected mortality at 2x0.1600 g AI/L treated using worst-case laboratory exposure procedure measured after 72 hr.
In test [4] the test system is Galendromus occidentalis. Kind of test: Toxicity against Metaseiulus occidentalis adults in bean leaf disk infested with two-spotted spider mites assessed as average number of eggs laid (fecundity) at 0.1600 g AI/L treated using worst-case laboratory exposure procedure measured after 24 hr (reference value: 2.11/day).
In test [5] the test system is Galendromus occidentalis. Kind of test: Toxicity against Metaseiulus occidentalis adults in bean leaf disk infested with two-spotted spider mites assessed as corrected mortality at 0.1600 g AI/L treated using worst-case laboratory exposure procedure measured after 72 hr.
Test [6] deals with Galendromus occidentalis. Description: Toxicity against Metaseiulus occidentalis adults in bean leaf disk infested with two-spotted spider mites assessed as average number of eggs laid (fecundity) at 0.1600 g AI/L treated using worst-case laboratory exposure procedure measured after 48 hr (reference value: 2.30/day).
Test [7] has as its system Galendromus occidentalis. Description: Toxicity against Metaseiulus occidentalis adults in bean leaf disk infested with two-spotted spider mites assessed as average number of eggs laid (fecundity) at 0.1600 g AI/L treated using worst-case laboratory exposure procedure measured after 72 hr (reference value: 2.23/day).
Test [8] relates to Galendromus occidentalis. Description: Toxicity against Metaseiulus occidentalis adults in bean leaf disk infested with two-spotted spider mites assessed as repellency at 0.1600 g AI/L treated using worst-case laboratory exposure procedure measured after 24 hr (reference value: 3.6%).
In test [9] the test system is Galendromus occidentalis. Description: Toxicity against Metaseiulus occidentalis adults in bean leaf disk infested with two-spotted spider mites assessed as corrected mortality at 4x0.1600 g AI/L treated using worst-case laboratory exposure procedure measured after 72 hr.
In test [10] the test system is Galendromus occidentalis. Kind of test: Toxicity against Metaseiulus occidentalis adults in bean leaf disk infested with two-spotted spider mites assessed as repellency at 0.1600 g AI/L treated using worst-case laboratory exposure procedure measured after 48 hr (reference value: 13.6%).
For test [11], the system named is Galendromus occidentalis. Description: Toxicity against Metaseiulus occidentalis adults in bean leaf disk infested with two-spotted spider mites assessed as average number of eggs laid (fecundity) at 0.1341 g AI/L treated using worst-case laboratory exposure procedure measured after 48 hr (reference value: 2.30/day).
The test system of test [12] is Galendromus occidentalis. Kind of test: Toxicity against Metaseiulus occidentalis adults in bean leaf disk infested with two-spotted spider mites assessed as corrected mortality at 0.1341 g AI/L treated using worst-case laboratory exposure procedure measured after 72 hr.
Test [13] has as its system Galendromus occidentalis. Kind of test: Ovicidal activity against Metaseiulus occidentalis eggs in bean leaf disk infested with two-spotted spider mites assessed as corrected cumulative mortality at 442 g/L SC formulation treated using worst-case laboratory exposure procedure measured after 144 hr (reference value: 0.7%).
For test [14], the system named is Galendromus occidentalis. Description: Toxicity against Metaseiulus occidentalis adults in bean leaf disk infested with two-spotted spider mites assessed as average number of eggs laid (fecundity) at 0.1341 g AI/L treated using worst-case laboratory exposure procedure measured after 72 hr (reference value: 2.23/day).
The test system of test [15] is Galendromus occidentalis. Kind of test: Toxicity against Metaseiulus occidentalis adults in bean leaf disk infested with two-spotted spider mites assessed as repellency at 0.1341 g AI/L treated using worst-case laboratory exposure procedure measured after 72 hr (reference value: 16.1%).
The test system of test [16] is Galendromus occidentalis. Kind of test: Toxicity against Metaseiulus occidentalis adults in bean leaf disk infested with two-spotted spider mites assessed as corrected mortality at 2x0.1341 g AI/L treated using worst-case laboratory exposure procedure measured after 72 hr.
The test system of test [17] is Galendromus occidentalis. Description: Toxicity against Metaseiulus occidentalis adults in bean leaf disk infested with two-spotted spider mites assessed as repellency at 0.1341 g AI/L treated using worst-case laboratory exposure procedure measured after 48 hr (reference value: 13.6%).
Test [18] deals with Galendromus occidentalis. Description: Toxicity against Metaseiulus occidentalis adults in bean leaf disk infested with two-spotted spider mites assessed as corrected mortality at 4x0.1341 g AI/L treated using worst-case laboratory exposure procedure measured after 72 hr.
For test [19], the system named is Galendromus occidentalis. Kind of test: Toxicity against Metaseiulus occidentalis adults in bean leaf disk infested with two-spotted spider mites assessed as repellency at 0.1341 g AI/L treated using worst-case laboratory exposure procedure measured after 24 hr (reference value: 3.6%).
The test system of test [20] is Galendromus occidentalis. Kind of test: Toxicity against Metaseiulus occidentalis adults in bean leaf disk infested with two-spotted spider mites assessed as average number of eggs laid (fecundity) at 0.1341 g AI/L treated using worst-case laboratory exposure procedure measured after 24 hr (reference value: 2.11/day).

As for `CN1COCN(Cc2cnc(Cl)s2)/C1=N\[N+](=O)[O-]` [THIAMETHOXAM], the mortality is given as 4.3% in the test on Galendromus occidentalis [1], 6.2% in the test with Galendromus occidentalis [3], 8% in the test with Galendromus occidentalis [5] and 8.5% in the test on Galendromus occidentalis [9]. The Repellency is reported as 41% in the test with Galendromus occidentalis [2], 5.1% in the test on Galendromus occidentalis [8] and 34% in the test on Galendromus occidentalis [10]. In addition, the Activity in the test with Galendromus occidentalis [4] turned out to be 1.44 day⁻¹; in the test on Galendromus occidentalis [6], 0.33 day⁻¹; in the test with Galendromus occidentalis [7], 0.58 day⁻¹.
As for `CC[C@H]1CCC[C@H](O[C@H]2CC[C@H](N(C)C)[C@@H](C)O2)[C@@H](C)C(=O)C2=C[C@@H]3[C@@H](C=C(C)[C@@H]4C[C@@H](O[C@@H]5O[C@@H](C)[C@H](OC)[C@@H](OC)[C@H]5OC)C[C@@H]34)[C@@H]2CC(=O)O1.CC[C@H]1CCC[C@H](O[C@H]2CC[C@H](N(C)C)[C@@H](C)O2)[C@@H](C)C(=O)C2=C[C@@H]3[C@@H](C=C[C@@H]4C[C@@H](O[C@@H]5O[C@@H](C)[C@H](OC)[C@@H](OC)[C@H]5OC)C[C@@H]34)[C@@H]2CC(=O)O1`, the Activity in the test with Galendromus occidentalis [11] stood at 1.59 day⁻¹; with Galendromus occidentalis [14], 2.28 day⁻¹; in the test on Galendromus occidentalis [20], 1.57 day⁻¹. Moreover, the mortality in the test with Galendromus occidentalis [12] is 0.4%; in the test with Galendromus occidentalis [16], 0%; with Galendromus occidentalis [18] it was 0%. Also, the mortality at 442000 µg/mL (stock) in the test on Galendromus occidentalis [13] turned out to be 6.6%. The Repellency was 28.8% in the test with Galendromus occidentalis [15], 24.4% in the test with Galendromus occidentalis [17] and 10.9% with Galendromus occidentalis [19].
